# According to US7754913B2, “Synthesis of isotopically labeled alpha-keto acids and esters” (Cambridge Isotope Laboratories, Inc., priority 2006, dated 2010):
# Assays:
# [1] = Concentration studies: stability of pyruvic acid solutions in water at higher concentrations; assay type: physicochemical; settings: each of the concentrations of Table 2; light for 6-weeks; about 22° C. to about 26° C.
# Procedure: Each of these commercial solutions were subjected to light for 6-weeks at temperatures ranging from about 22° C. to about 26° C. At each of the concentrations listed below, it was discovered that the pyruvic acid solutions were stable.
# [2] = cited from earlier work
# [3] = Shelf storage stability of [1-13C] pyruvic acid in water, 1H and 13C NMR spectra compared; assay type: physicochemical; settings: 0.025M in water; for Storage stability, Duration 12 weeks / Storage stability, Duration 17 weeks: NMR; for Shelf stability (NMR spectra unchanged): each of the samples, all conditions of Table 1
# Procedure: Samples of isotopically labeled [1-^13C] pyruvic acid, having Formula VI and synthesized as discussed immediately below, were subjected to various conditions as depicted in Table 1, in order to establish the compound's shelf storage stability.
# The resulting [1-^13C] pyruvic acid was tested as follows in Table 1:
# ^1H and ^13C NMR spectra of the distilled [1-^13C] pyruvic acid in water (0.025M) were acquired at the onset of the study and prior to exposing the samples to the various conditions specified in Table 1. ^1H and ^13C NMR spectra were again acquired for each of the samples after being exposed to the aforementioned conditions on a weekly basis for 12-weeks. The spectra acquired after exposure were compared visually and appeared to remain unchanged as compared with the spectra acquired prior to exposure, i.e. the spectra were as expected for [1-^13C] pyruvic acid in water. As such, it was concluded that each of the samples were shelf stable. Similarly, ^1H and ^13C NMR spectra acquired after 17-weeks of exposure remained unchanged as compared with the spectra acquired prior to exposure.
# [4] = Sample 3, Room temperature (about 22° C. to about 26° C.), Dark
# [5] = Sample 4, Room temperature (about 22° C. to about 26° C.), Light
compound,measurement,setting,value
"CC(=O)C(=O)O [Pyruvic acid, 2-oxopropanoic acid, reference compound]",Stability of solutions in water,[1],stable
same,Solubility in water,[2],soluble
CC(=O)[13C](=O)O [[1-^13C] pyruvic acid],"Storage stability, Duration 12 weeks","[3]; Sample 1, −10° C., Dark",Stable
same,"Storage stability, Duration 17 weeks","[3]; Sample 1, −10° C., Dark",Stable
same,"Storage stability, Duration 12 weeks","[3]; Sample 2, 4° C., Dark",Stable
same,"Storage stability, Duration 17 weeks","[3]; Sample 2, 4° C., Dark",Stable
same,"Storage stability, Duration 12 weeks",[3]; [4],Stable
same,"Storage stability, Duration 17 weeks",[3]; [4],Stable
same,"Storage stability, Duration 12 weeks",[3]; [5],Stable
same,"Storage stability, Duration 17 weeks",[3]; [5],Stable
same,Shelf stability (NMR spectra unchanged),[3]; after 17-weeks,shelf stable
same,Shelf stability (NMR spectra unchanged),[3]; weekly for 12-weeks,shelf stable
